This test can be described thus: Selectivity ratio of Kd for full length Mycobacterium tuberculosis tRNA (guanine(37)-N1)-methyltransferase expressed in Escherichia coli BL21 (DE3) to Kd for Pseudomonas aeruginosa tRNA (guanine(37)-N1)-methyltransferase (Leu5 to Asp25 residues) expressed in Escherichia coli BL21 (DE3) Rosetta T1R cells.

The record followed here is ChEMBL document CHEMBL4373727, “Thienopyrimidinone Derivatives That Inhibit Bacterial tRNA (Guanine37-N1)-Methyltransferase (TrmD) by Restructuring the Active Site with a Tyrosine-Flipping Mechanism” (J Med Chem, 2019).

As to `CCCCCCCCNCc1ccc(CNC(=O)c2csc3nc[nH]c(=O)c23)cc1`, the Ratio stood at 100. Next, `NC1CCN(Cc2ccc(CNC(=O)c3csc4nc[nH]c(=O)c34)cc2)CC1`: 100 to 300.
